In patent US20260218197A1, “EXTRACELLULAR VESICLE SECRETION REDUCING AGENT FOR REDUCING EXTRACELLULAR VESICLE SECRETION, AND USE OF THE SAME” (THEORIA SCIENCE INC., priority 2020, published 2026):

What was measured:
[1] = tested on: normal epithelial cells in the large intestine (HCoEpiC); test: Amount of secreted EVs per cell by ExoScreen in normal cells; assay type: cell-based
Procedure: (§1) EV detection was performed using an AlphaLISA reagent (Perkin Elmer) composed of AlphaScreen streptavidin-coated donor beads (6760002), AlphaLISA unconjugated acceptor beads (6062011), and an AlphaLISA universal buffer (AL001F), a 96-well half-area white plate (6005560, Perkin Elmer), and a detection device EnSpire Alpha 2300 Mutilabel plate reader (Perkin Elmer). Specifically, the EV detection was performed as follows. Each well of the plate was filled with 5 μL of EVs or 10 μL of CM (cell culture supernatant), 10 μL of a 5 nmol/L biotinylated antibody solution prepared using the above-described buffer, and 10 μL of 50 µg/mL AlphaLISA acceptor bead-conjugated antibody. For detection of CD9/CD9 double-positive EVs, a biotinylated anti-human CD9 antibody and an anti-human CD9 antibody conjugated with AlphaLISA acceptor beads were used. For detection of CD9/CD63 double-positive EVs, a biotinylated anti-human CD9 antibody and an anti-human CD63 antibody conjugated with AlphaLISA acceptor beads were used. For detection of CD63/CD63 double-positive EVs, a biotinylated anti-human CD63 antibody and an anti-human CD63 antibody conjugated with AlphaLISA acceptor beads were used. The plate was incubated at 37° C. for 1 hour, and then, 25 μL of 80 μg/mL AlphaScreen streptavidin-coated donor beads were added thereto. The plate was incubated at 37° C. for another 30 minutes in the dark. Next, luminescence in the wells of the plate was measured using the detection device with the excitation wavelength set to 680 nm and the emission detection wavelength set to 615 nm. The antibodies used were both commercially available products, namely, a mouse monoclonal anti-human CD9 (Clone 12A12) and a CD63 antibody (Clone 8A12) (both available from Cosmo Bio).
(§2) The present example examined the effect of NCT-503 on normal cells to provide indirect data showing that NCT-503 reduced EV secretion specific to cancer cells. […] Thereafter, the cell viability was determined and also the amount of secreted EVs was measured by the ExoScreen method.
(§3) Specifically, the test was performed in the following manner. […] Then, the medium in the wells was collected and the cells in the wells were counted. As a control, the same procedures as described above were performed except that DMSO was added instead of the inhibitor solution, and the cells in the wells were counted. Then, the cell viability was calculated assuming that the number of cells in the NCT-free (0 M) medium (i.e., DMSO-containing medium) of the control was a relative value of 1. Also, the amount of secreted EVs was measured by ExoScreen.

[2] = tested on: normal epithelial cells in the lung (HBEC); test: as above; assay type: cell-based
Procedure: as §1, §2, §3

**Q.** Which “difference in amount of secreted EVs, NCT-503-containing medium vs DMSO-containing medium without NCT” value ([1]; normal epithelial cells in the large intestine, 0.15625 to 2.5 μmol/L) does the source give for Cc1cc(C)nc(NC(=S)N2CCN(Cc3ccc(C(F)(F)F)cc3)CC2)c1 [NCT-503] here?
**A.** almost no difference

**Q.** What about the “relative value of the amount of secreted EVs with respect to DMSO-containing medium without NCT (0 µM)” value ([1]; normal epithelium cells in the large intestine, NCT-503 2.5 mol/L (so in the source), 48 hours, ExoScreen) of the same compound?
**A.** 0.98

**Q.** What about the “difference in amount of secreted EVs, NCT-503-containing medium vs DMSO-containing medium without NCT” value ([2]; normal epithelial cells in the lung, 0.15625 to 2.5 μmol/L) of the same compound?
**A.** almost no difference

**Q.** And the “relative value of the amount of secreted EVs with respect to DMSO-containing medium without NCT (0 µM)” value ([2]; normal epithelium cells in the lung, NCT-503 2.5 mol/L (so in the source), 48 hours, ExoScreen)?
**A.** 1.17
